From publication PMC12332266 (Frontiers in Pharmacology, 2025)
Counter-ions that a name gives are not always drawn. Like-named read-outs stand apart in the source and are kept apart here. Blank lines part the entries; values can stand above or below the compound they belong to.

How the values were obtained:
[1] = system: hiPSC-CM (iCell Cardiomyocytes^2); test: RTCA CardioECR assessment (impedance and electrophysiology parameters)
Description: (§1) Culture media change was performed every 2 days.
After seeding on fibronectin-coated xCELLigence ePlates (Agilent Technologies, Inc. Santa Clara, CA, USA), iCell^2 CM were monitored continuously through impedance electrodes. The following impedance parameters were measured: Cell Index (CI, measure of cell “health” and monolayer integrity), beating rate (BR) and amplitude (CI Amplitude, magnitude of contraction). Electrophysiology-like parameters (Field Potential Duration (FPD), considered as a surrogate for QT in in vivo studies, and Spike Amplitude (SA), depolarization induced by Na^+ channel opening) were measured starting from day 4–6, following the monolayer formation. […] All RTCA CardioECR data were double normalized (DMSO control and the baseline) with no further statistical group comparison for the normalized parameters. The variability of the data within the treatment groups was assessed by standard deviation.

[2] = system: hiPSC-CM (iCell Cardiomyocytes^2); test: Intracellular miRNA expression by RT-qPCR in hiPSC-CM pellets after 72-hour treatment; conditions: for fold induction at 0.1 µM / fold induction at 0.3 µM / fold induction at 1 µM / fold induction at 3 µM: Homo sapiens
Description: as §1
Total RNA was extracted from hiPSC-CM using the miRNeasy 96 Kit (Qiagen, Hilden, Germany) following the manufacturer’s recommendations. After the extraction, RNA purity was assessed by NanoDrop™ 8000 Spectrophotometer (Thermo Fisher Scientific Inc.). 5–10 ng/μL of RNA per sample were reverse transcribed and pre-amplified by using the TaqMan™ Advanced miRNA cDNA Synthesis Kit (Thermo Fisher Scientific Inc.). The synthesized cDNA was used for RT-qPCR with selected TaqMan™ assays (Thermo Fischer Scientific Inc.). RT-qPCR was carried out following the Applied Biosciences TaqMan miRNA expression assay protocol on a ViiA7 instrument (Thermo Fisher Scientific, Inc.). […] Therefore, to maximize the number of drugs and concentrations, explored in the same study, we pooled the triplicates for intracellular profiling of miRNAs. Therefore, no statistical analysis was performed on the data of miRNA profiling in the pellets of hiPSC-CM.
Following RTCA CardioECR assessment, hiPSC-CM cell pellets were collected, and total RNA was extracted and purified to investigate miRNAs upregulation by RT-qPCR. […] For the initial assessment of intracellular miRNAs in 12 different treatments, encompassing various drug classes, we used a panel of 17 miRNAs, which we selected from the publicly available data focusing mainly on in vitro models and structural cardiotoxicants (Supplementary Table S2).

[3] = ref extensive literature search, cited from earlier work
[4] = hiPSC-CM, 72-hour treatment, lowest concentration causing at least 20% change from baseline
[5] = 72 h, read-out: hsa-miR-7-5p fold change
[6] = 72 h, read-out: hsa-miR-29a-5p fold change
[7] = 72 h, read-out: hsa-miR-96-5p fold change
[8] = 72 h, read-out: hsa-miR-126-3p fold change
[9] = 72 h, read-out: hsa-miR-133b fold change
[10] = 72 h, read-out: hsa-miR-146b-5p fold change
[11] = 72 h, read-out: hsa-miR-182-5p fold change
[12] = 72 h, read-out: hsa-miR-185-3p fold change
[13] = 72 h, read-out: hsa-miR-187-3p fold change
[14] = 72 h, read-out: hsa-miR-208b-3p fold change
[15] = 72 h, read-out: hsa-miR-365a-5p fold change
[16] = 72 h, read-out: hsa-miR-[…] change
[17] = hiPSC-CM, 72-hour treatment, Supplementary Table 1
[18] = hiPSC-CM, 72-hour treatment, change from baseline

Cell index (CI) MEC [1, 4]: 0.1 µM
RTCA, MEC (CI) ([1]; hiPSC-CM, change ≥20%, Table 2): 0.1 µM (CI, BR)
Beating Rate MEC ([1]; human, 72 h): 0.1 µM
Beating rate (BR) MEC ([1]; human, 72 h): 0.1 µM
Cell Index MEC ([1]; human, 72 h): 0.1 µM
Contractility Amplitude MEC ([1]; human, 72 h): 1 µM
Field Potential Duration MEC ([1]; human, 72 h): 0.1 µM
RTCA, MEC (BR) ([1]; human, 72 h): 0.1 µM (CI, BR)
Spike Amplitude (SA) MEC ([1]; human, 72 h): 0.1 µM
miRNAs hiPSC-CM pellet, MEC overall [2]: 0.3 µM
SMILES: CC(=O)[C@]1(O)Cc2c(O)c3c(c(O)c2[C@@H](O[C@H]2C[C@H](N)[C@H](O)[C@H](C)O2)C1)C(=O)c1ccccc1C3=O [Idarubicin]
miRNAs upregulated at the MEC overall (hiPSC-CM pellet) [2]: miR-96 -5p, miR-126-3p, miR-133b, miR-185-3p
fold induction at 0.1 µM [2, 5]: 4.5
fold induction at 0.3 µM [2, 5]: 5.8
fold induction at 1 µM [2, 5]: 3.5
fold induction at 3 µM [2, 5]: 0.2
fold induction at 0.1 µM [2, 6]: 1.2
fold induction at 0.3 µM [2, 6]: 4.4
fold induction at 1 µM [2, 6]: 1.2
fold induction at 3 µM [2, 6]: 3
fold induction at 0.1 µM [2, 7]: 9
fold induction at 0.3 µM [2, 7]: 21.3
fold induction at 1 µM [2, 7]: 53.4
fold induction at 3 µM [2, 7]: 0.8
fold induction at 0.1 µM [2, 8]: 1
fold induction at 0.3 µM [2, 8]: 1.3
fold induction at 1 µM [2, 8]: 0.7
fold induction at 3 µM [2, 8]: 1.1
fold induction at 0.1 µM [2, 9]: 0.5
fold induction at 0.3 µM [2, 9]: 2.5
fold induction at 1 µM [2, 9]: 1.2
fold induction at 3 µM [2, 9]: 10.9
fold induction at 0.1 µM [2, 10]: 3.5
fold induction at 0.3 µM [2, 10]: 7.3
fold induction at 1 µM [2, 10]: 2
fold induction at 3 µM [2, 10]: 3.4
fold induction at 0.1 µM [2, 11]: 0.03
fold induction at 0.3 µM [2, 11]: 0.1
fold induction at 1 µM [2, 11]: 0.4
fold induction at 3 µM [2, 11]: 0.7
fold induction at 0.1 µM [2, 12]: 1.6
fold induction at 0.3 µM [2, 12]: 1.3
fold induction at 1 µM [2, 12]: 1
fold induction at 0.1 µM [2, 13]: 9
fold induction at 0.3 µM [2, 13]: 8.5
fold induction at 1 µM [2, 13]: 2.9
fold induction at 3 µM [2, 13]: 1.9
fold induction at 0.1 µM [2, 14]: 0.5
fold induction at 0.3 µM [2, 14]: 0.6
fold induction at 1 µM [2, 14]: 0.8
fold induction at 3 µM [2, 14]: 2
fold induction at 0.1 µM [2, 15]: 3.5
fold induction at 0.3 µM [2, 15]: 2.1
fold induction at 1 µM [2, 15]: 1.1
fold induction at 3 µM [2, 15]: 3.4
fold induction at 0.1 µM [2, 16]: 1
fold induction at 0.3 µM [2, 16]: 1.1
fold induction at 1 µM [2, 16]: 0.7
fold induction at 3 µM [2, 16]: 3.4
Cmax total ([3]; Supplementary Table 1): 120 to 3800 nM
Cmax total ([3]; Table 1): 120 to 3800 nM

SMILES: CC(C)C[C@H](NC(=O)CNC(=O)c1cc(Cl)ccc1Cl)B1OC(=O)C(CC(=O)O)(CC(=O)O)O1 [Ixazomib Citrate]
Contractility Amplitude magnitude of effect at MEC ([1]; hiPSC-CM, 72-hour treatment): -94%
Field Potential Duration magnitude of effect at MEC ([1]; hiPSC-CM, 72-hour treatment): -35%
Spike Amplitude (SA) magnitude of effect at MEC ([1]; hiPSC-CM, 72-hour treatment): +75%
Beating Rate magnitude of effect at MEC [1, 17]: +33%
Cell Index magnitude of effect at MEC [1, 17]: -37%
Field Potential Duration MEC ([1]; hiPSC-CM, 72-hour treatment, at least 10% change): 0.03 µM
Contractility Amplitude MEC ([1]; hiPSC-CM, 72-hour treatment, at least 20% change): 0.1 µM
Beating Rate MEC ([1]; hiPSC-CM, 72-hour treatment, at least 20% change, Supplementary Table 1): 0.03 µM
Spike Amplitude (SA) MEC ([1]; hiPSC-CM, 72-hour treatment, at least 40% change): 0.03 µM
Beating rate (BR) magnitude of effect at MEC [1, 18]: +33%
Cell index (CI) magnitude of effect at MEC [1, 18]: −37%
Beating rate (BR) MEC [1, 4]: 0.03 µM
Cell index (CI) MEC [1, 4]: 0.3 µM
RTCA, MEC (BR) ([1]; hiPSC-CM, change ≥20%, Table 2): 0.03 µM
RTCA, MEC (CI) ([1]; hiPSC-CM, change ≥20%, Table 2): 0.3 µM
hsa-miR-7-5p fold change, intracellular ([2]; 0.03 µM, 72 h): 2.0
hsa-miR-29a-5p fold change, intracellular ([2]; 0.03 µM, 72 h): 1.5
hsa-miR-96-5p fold change, intracellular ([2]; 0.03 µM, 72 h): 8.8
hsa-miR-126-3p fold change, intracellular ([2]; 0.03 µM, 72 h): 1.7
hsa-miR-133b fold change, intracellular ([2]; 0.03 µM, 72 h): 1.2
hsa-miR-146b-5p fold change, intracellular ([2]; 0.03 µM, 72 h): 1.0
hsa-miR-182-5p fold change, intracellular ([2]; 0.03 µM, 72 h): 1.4
hsa-miR-185-3p fold change, intracellular ([2]; 0.03 µM, 72 h): 1.0
hsa-miR-187-3p fold change, intracellular ([2]; 0.03 µM, 72 h): 1.1
hsa-miR-208b-3p fold change, intracellular ([2]; 0.03 µM, 72 h): 0.9
hsa-miR-7-5p fold change, intracellular ([2]; 0.1 µM, 72 h): 0.3
hsa-miR-29a-5p fold change, intracellular ([2]; 0.1 µM, 72 h): 2.0
hsa-miR-96-5p fold change, intracellular ([2]; 0.1 µM, 72 h): 6.4
hsa-miR-126-3p fold change, intracellular ([2]; 0.1 µM, 72 h): 1.8
hsa-miR-133b fold change, intracellular ([2]; 0.1 µM, 72 h): 25.3
hsa-miR-146b-5p fold change, intracellular ([2]; 0.1 µM, 72 h): 1.9
hsa-miR-182-5p fold change, intracellular ([2]; 0.1 µM, 72 h): 34.9
hsa-miR-185-3p fold change, intracellular ([2]; 0.1 µM, 72 h): 0.4
hsa-miR-187-3p fold change, intracellular ([2]; 0.1 µM, 72 h): 3.1
hsa-miR-208b-3p fold change, intracellular ([2]; 0.1 µM, 72 h): 0.0
hsa-miR-365a-5p fold change, intracellular ([2]; 0.1 µM, 72 h): 44.3
hsa-miR-7-5p fold change, intracellular ([2]; 0.3 µM, 72 h): 6.9
hsa-miR-29a-5p fold change, intracellular ([2]; 0.3 µM, 72 h): 1.7
hsa-miR-96-5p fold change, intracellular ([2]; 0.3 µM, 72 h): 13.0
hsa-miR-126-3p fold change, intracellular ([2]; 0.3 µM, 72 h): 2.7
hsa-miR-133b fold change, intracellular ([2]; 0.3 µM, 72 h): 0.4
hsa-miR-146b-5p fold change, intracellular ([2]; 0.3 µM, 72 h): 7.1
hsa-miR-182-5p fold change, intracellular ([2]; 0.3 µM, 72 h): 8.5
hsa-miR-185-3p fold change, intracellular ([2]; 0.3 µM, 72 h): 2.0
hsa-miR-187-3p fold change, intracellular ([2]; 0.3 µM, 72 h): 1.6
hsa-miR-208b-3p fold change, intracellular ([2]; 0.3 µM, 72 h): 0.8
hsa-miR-365a-5p fold change, intracellular ([2]; 0.3 µM, 72 h): 2.5
hsa-miR-7-5p fold change, intracellular ([2]; 1 µM, 72 h): 12.6
hsa-miR-29a-5p fold change, intracellular ([2]; 1 µM, 72 h): 4.7
hsa-miR-96-5p fold change, intracellular ([2]; 1 µM, 72 h): 13.4
hsa-miR-126-3p fold change, intracellular ([2]; 1 µM, 72 h): 3.1
hsa-miR-133b fold change, intracellular ([2]; 1 µM, 72 h): 0.6
hsa-miR-146b-5p fold change, intracellular ([2]; 1 µM, 72 h): 3.2
hsa-miR-182-5p fold change, intracellular ([2]; 1 µM, 72 h): 5.6
hsa-miR-185-3p fold change, intracellular ([2]; 1 µM, 72 h): 0.9
hsa-miR-187-3p fold change, intracellular ([2]; 1 µM, 72 h): 2.4
hsa-miR-208b-3p fold change, intracellular ([2]; 1 µM, 72 h): 0.9
intracellular miRNA upregulation in hiPSC-CM, in words ([2]; 72-hour treatment, four concentrations per drug): highly upregulated hsa-miR-133b, hsa-miR-182-5pand hsa-miR-365a-5p
miRNAs upregulated at the MEC overall (hiPSC-CM pellet) ([2]; fold change ≥2, 72 h): miR-126-3p, miR-29a-5p, miR-7-5p, miR-96-5p
miRNAs hiPSC-CM pellet, MEC overall ([2]; lowest concentration tested which produced miRNA upregulation (fold change ≥2), 72 h): 0.03 µM
Cmax total ([3]; Supplementary Table 1): 213 nM
Cmax total ([3]; Table 1): 210 nM
